Test system: Liver Response-Associated Features (LRFs) in serum/plasma (blood)
Test: Proteome analysis (2D electrophoresis, Reference Protocol) of depleted serum/plasma of drug-treated vs control animals: relative abundance of LRFs
Excerpt: Samples from animals treated with various drugs at various timepoints and various dose levels can be collected, prepared, and analysed as described herein. […] Using the following procedure, proteins in liver tissue and serum/plasma from 5 control animals and 5 animals having liver response induced through drug treatment were separated by isoelectric focusing followed by SDS-PAGE and analyzed. Samples were taken and analyzed at three different time points designated “early”, “full manifestation” and “late”. Parts 6.1.1 to 6.1.9 (inclusive) of the procedure set forth below are hereby designated as the “Reference Protocol”.
Approximately 200 μl venous blood was collected at the time of necropsy in serum seperation tubes and serum obtained by centrifugation for 3 minutes at 11,000 rpm using a Biofuge A centrifuge. 100 μl of the resulting serum was added to 15 μl protease inhibitor, vortexed and frozen at −80° C.
A protein assay (Pierce (Rockford, Ill.) BCA Cat #23225) was performed on each serum/plasma sample as received. Prior to protein separation, each sample was processed for selective depletion of certain proteins, in order to enhance and simplify protein separation and facilitate analysis by removing proteins that may interfere with or limit analysis of proteins of interest. See International Patent Application No. PCT/GB99/01742, filed Jun. 1, 1999, which is incorporated by reference in its entirety, with particular reference to pages 3 and 6.
This was done by circulating the following solutions sequentially through the columns: (1) Dulbecco's Phosphate Buffered Saline (Gibco BRL Cat. No. 14190-094); (2) concentrated antibody solution; (3) 200 mM sodium carbonate buffer, pH 8.35; (4) cross-linking solution (200 mM sodium carbonate buffer, pH 8.35, 20 mM dimethylpimelimidate); and (5) 500 mM ethanolamine, 500 mM NaCl. A third (un-derivatised) protein G Hi-Trap column was then attached to the lower end of the tandem column assembly.
The chromatographic procedure was automated using an Akta Fast Protein Liquid Chromatography (FPLC) System such that a series of up to seven runs could be performed sequentially. […] Fractions (typically 3 ml per tube) were collected of unbound material (“Flowthrough fractions”) that eluted through the column during column loading and washing stages and of bound proteins (“Bound/Eluted fractions”) that were eluted by step elution with Immunopure Gentle Ag/Ab Elution Buffer (Pierce Cat. No. 21013). The eluate containing unbound material was collected in fractions which were pooled, desalted/concentrated by centrifugal ultrafiltration and stored to await further analysis by 2D PAGE.
A volume of depleted serum/plasma containing approximately 300 μg of total protein was aliquoted and an equal volume of 10% (w/v) SDS (Fluka 71729), 2.3% (w/v) dithiothreitol (BDH 443852A) was added. The sample was heated at 95° C. for 5 mins, and then allowed to cool to 20° C . 125 μl of the following buffer was then added to the sample:
This mixture was vortexed, and centrifuged at 13000 rpm for 5 mins at 15° C., and the supernatant was analyzed by isoelectric focusing.
Isoelectric focusing (IEF), was performed using the Immobiline® DryStrip Kit (Pharmacia BioTech), following the procedure described in the manufacturer's instructions, see Instructions for Immobilineg DryStrip Kit, Pharmacia, #18-1038-63, Edition AB (incorporated herein by reference in its entirety). Immobilized pH Gradient (IPG) strips (18 cm, pH 3-10 non-linear strips; Pharmacia Cat. #17-1235-01) were rehydrated overnight at 20° C. in a solution of 8M urea, 2% (w/v) CHAPS, 10 mM DTT, 2% (v/v) Resolytes 3.5-10, as described in the Immobiline DryStrip Users Manual. For IEF, 50 μl of supernatant (prepared as above) was loaded onto a strip, with the cup-loading units being placed at the basic end of the strip.

In the case of `CCC1(c2ccccc2)C(=O)NC(=O)NC1=O` [phenobarbital], the “Fold Change LRF-235” value (Early, P 0.0075) is reported as 8.26 fold, the “Fold Change LRF-223” value (Early, P 0.0117) is reported as 1.34 fold and the “Fold Change LRF-158” value (Early, P 0.0119) is reported as −1.33 fold. For the same compound, the “Fold Change LRF-217” value (Early, P 0.0122) was 2.16 fold, the “Fold Change LRF-182” value (Early, P 0.0178) was −2.81 fold and the “Fold Change LRF-179” value (Early, P 0.0212) was −1.37 fold. For the same compound, the “Fold Change LRF-224” value (Early, P 0.0216) was 1.30 fold, the “Fold Change LRF-369” value (Late, P 0.0097) was 2.53 fold and the “Fold Change LRF-371” value (Late, P 0.0109) was 3.02 fold. For the same compound, the “Fold Change LRF-257” value (Middle, P 0.0122) was −1.42 fold, the “Fold Change LRF-259” value (Middle, P 0.0212) was −1.34 fold and the “Fold Change LRF-294” value (Middle, P 0.0216) was 1.57 fold.

Reference: patent US20030228583A1, “Biomarkers of liver response” (priority 2001, published 2003)
